Test results: patent US7354940B2, “2,5-dioxoimidazolidin-4-yl acetamines and analogues as inhibitors of metalloproteinase mmp12” (AstraZeneca AB, priority 2002, dated 2008)
pIC50: −log10 of the molar value.

Biological target: T1, Recombinant human MMP12 catalytic domain (Homo sapiens, UniProt P39900)
T1 construct: Recombinant human MMP12 catalytic domain; made in house
Assay: Isolated enzyme assay (MMP12 enzyme assay)
Format: biochemical
Conditions: fluorogenic substrate Mac-Pro-Cha-Gly-Nva-His-Ala-Dpa-NH2, 60 minutes at room temperature, pH 7.3
Experimental: Recombinant human MMP12 catalytic domain may be expressed and purified as described by Parkar A. A. et al, (2000), Protein Expression and Purification, 20:152. The purified enzyme can be used to monitor inhibitors of activity as follows: MMP12 (50 ng/ml final concentration) is incubated for 60 minutes at room temperature with the synthetic substrate Mac-Pro-Cha-Gly-Nva-His-Ala-Dpa-NH2 in assay buffer (0.1M “Tris-HCl” (trade mark) buffer, pH 7.3 containing 0.1M NaCl, 20 mM CaCl2, 0.020 mM ZnCl and 0.05% (w/v) “Brij 35 ” (trade mark) detergent) in the presence (5 concentrations) or absence of inhibitors. Activity is determined by measuring the fluorescence at λex 320 nm and λem 405 nm. Percent inhibition is calculated as follows: % Inhibition is equal to the [Fluorescenceplus inhibitor−Fluorescencebackground] divided by the [Fluorescenceminus inhibitor−Fluorescenebackground].

T1 sequence (P39900 106-263 limits assumed): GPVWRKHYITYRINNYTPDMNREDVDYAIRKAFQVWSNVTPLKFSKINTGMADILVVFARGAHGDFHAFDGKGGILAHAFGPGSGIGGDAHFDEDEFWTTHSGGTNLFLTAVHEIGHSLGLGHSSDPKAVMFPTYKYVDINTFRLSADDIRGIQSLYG

Row | pIC50 | Compound
1 | 7.66 | O=C(CC1NC(=O)NC1=O)NCCc1ccc(-c2ccc(F)cc2)cc1 (stereo not shown) [Example 1, 2-(2,5-Dioxoimidazolidin-4-yl)-N-[2-(4′-fluoro-biphenyl-4-yl)-ethyl]-acetamide]
2 | 8.15 | N#Cc1ccc(-c2ccc(CCNC(=O)CC3NC(=O)NC3=O)cc2)cc1 (stereo not shown) [Example 2, N-[2-(4′-Cyano-biphenyl-4-yl)-ethyl]-2-(2,5-dioxoimidazolidin-4-yl)-acetamide]
3 | 7.49 | O=C(CC1NC(=O)NC1=O)NCCc1ccc(-c2ccccc2)cc1 (stereo not shown) [Example 5, N-(2-Biphenyl-4-yl-ethyl)-2-(2,5-dioxoimidazolidin-4-yl)-acetamide]
4 | 8.22 | O=C(CC1NC(=O)NC1=O)NCCc1ccc(-c2cccs2)cc1 (stereo not shown) [Example 14, 2-(2,5-Dioxoimidazolidin-4-yl)-N-[2-(4-thiophen-2-yl-phenyl)ethyl]-acetamide]
5 | 8.10 | O=C(CC1NC(=O)NC1=O)NCCc1ccc(-c2cc(Cl)cc(Cl)c2)cc1 (stereo not shown) [Example 21, N-[2-(3′,5′-Dichloro-biphenyl-4-yl)ethyl]-2-(2,5-dioxoimidazolidin-4-yl)-acetamide]
6 | 7.82 | Cc1cccc(-c2ccc(CCNC(=O)CC3NC(=O)NC3=O)cc2)c1 (stereo not shown) [Example 22, 2-(2,5-Dioxoimidazolidin-4-yl)-N-[2-(3′-methyl-biphenyl-4-yl)ethyl]-acetamide]
7 | 8.22 | O=C(CC1NC(=O)NC1=O)NCCc1ccc(-c2cc3ccccc3o2)cc1 (stereo not shown) [Example 23, N-[2-(4-Benzofuran-2-yl-phenyl)ethyl]-2-(2,5dioxoimidazolidin-4-yl)-acetamide]
8 | 8.40 | COc1cccc(-c2ccc(CCNC(=O)CC3NC(=O)NC3=O)cc2)c1 (stereo not shown) [Example 24, 2-(2,5-Dioxoimidazolidin-4-yl)-N-[2-(3′-methoxy-biphenyl-4-yl)ethyl]-acetamide]
9 | 7.77 | CC(=O)c1ccc(-c2ccc(CCNC(=O)CC3NC(=O)NC3=O)cc2)cc1 (stereo not shown) [Example 26, N-[2-(4′-Acetyl-biphenyl-4-yl)ethyl]-2-(2,5-dioxoimidazolidin-4-yl)-acetamide]
10 | 8.30 | O=C(CC1NC(=O)NC1=O)NCCc1ccc(-c2cc3ccccc3s2)cc1 (stereo not shown) [Example 27, N-[2-(4-Benzo[b]thiophen-2-yl-phenyl)ethyl]-2-(2,5-dioxoimidazolidin-4-yl)-acetamide]
